Data reported in US11306063B2, “Heterocyclic naphthoquinones derivatives for use in the treatment of cancers including Cushing disease” (Commissariat a l'Energie Atomique et aux Energies …, priority 2016, dated 2022).

How the values were obtained:
LNCaP cells spheroids = assay: Cell death in 3D spheroids (PI/Hoechst, high content analysis); format: cell-based, human; details: 1 to 3 days, increasing concentration, FIG. 2C
Procedure: Spheroids were then stained with Hoechst and Propidium Iodure (PI). The area of each staining was calculated via automated imaging. Histograms represent the medium value of the PI/Hoechst areas ratio calculated on 3 to 6 independent spheroids. Error bars indicate the standard deviation between technical replicates. One out of three experiments is presented.
For 3D cell culture (spheroids), the LNCaP-FGC (fast growing colony) cell line (ATCC #CRL1740) was used. This cell line derives from the LNCaP cell line (Human Prostatic Carcinoma) which shares all the main characteristics, including its androgen sensitivity, described for the parental line and HCT116 (ATCC #CCL 247) (Human Colorectal Carcinoma) cell lines. […]
An automated imaging protocol was designed to monitor the induction of cell death in the spheroids by high content analysis methods (HCA). 3 hours before reading, cells were labeled with vital Hoechst (400 ng/ml) (Thermo Fischer Scientific #33342) and Propidium Iodide (PI) at 1 μg/ml (Sigma Aldrich #P4864) as markers of cell nuclei and cell death respectively. Images of PI and Hoechst fluorescence were acquired using the automated microscope ArrayScan^VTI (ThermoScientific) and 5 times magnification. […]

[1] = Metabolic stability on mouse liver microsomes; format: in vitro ADME; details: 0.5 μM, up to 30 min; for cofactors (CYP)-mediated metabolism, mouse: with cofactors; for metabolism in the absence of cofactors, mouse: without cofactors
Procedure: Each compound was incubated either with cofactors (n=2) or without cofactors (n=1). Positive controls were: Diclofenac, Midazolam and Amitriptyline.

[2] = test system: Gefitinib-resistant clone H1975; assay: Cell growth inhibition and cell death induction (Incucyte), H1975; format: cell-based, human; details: 72 hours, FIG. 12A,B
Description: FIG. 12: The cell growth inhibition and cell death induction of non-small cell lung cancers (NSCLC), HCC827 cells and derivative Gefitinib-resistant clone H1975 (FIG. 12 A,B) and of PC-3 (FIG. 12 C,D) and LnCAP (FIG. 12 E,F) were monitored using Incucyte microscope. Histogram represent in A,C,E: the final cell area relative to the total well area in (%) and in B,D,F: the fluorescent area in μm2. Error bars indicate standard deviation between 6 technical replicates.
The cell growth inhibition and cell death induction of non-small cell lung cancers (NSCLC), HCC827 cells and derivative Gefitinib-resistant clone H1975 were monitored during a period of 72 hours using Incucyte microscope and dedicated programs allowing to monitor cell confluency (i.e.: cell surface area relative to total well surface) and cell death induction by adding Propidium Iodide (PI) at 1 μg/ml (Sigma Aldrich #P4864) in the culture medium.

HCT116 cells = assay: Cytotoxicity assay (PrestoBlue cell viability), HCT116; format: cell-based; details: Homo sapiens, HCT-116; 48 hours treatment
Procedure: Messa, Messa DX5, HCT116, HEK-293, PC-3, LNCaP, HCC827 and H1975 cell lines are issued from the American Type Culture Collection (ATCC).
Messa, Messa DX5 and HCT116 were maintained in McCoy's supplemented with 10% fetal bovine serum, and 1% penicillin/streptomycin. PC-3, LNCaP cells were maintained in RPMI medium supplemented with 10% fetal bovine serum, and 1% penicilin/streptomycin and in the case of Messa DX5: 500 nM Doxorubicin was added to maintain selection pressure. HEK293 were maintained in DMEM medium supplemented with 10% fetal bovine serum, and 1% penicillin/streptomycin. Cells were maintained at 37° C. with 5% CO2, 95% air, and humid atmosphere. In the case of hormonal dependent LNCaP cells, 2 μM DiHydroTestosterone (DHT) was added or not—depending on the type of biological assay—for the same incubation period as compounds.
For cytotoxicity assays, cells were seeded in 96-well microplates 24 hours before the addition of increasing concentrations of each compound in the culture medium. Cell viability was analyzed 48 hours following addition of each compound through the monitoring of mitochondrial […] activity using PrestoBlue® Cell Viability Reagent (Invitrogen; #A-13261). Paclitaxel was used as a control which is cytotoxic on various cancerous cells although not on chemoresistant MESSA DX5 lineage.

[3] = test system: CyclinD1, FAS, p53, PARP, cMyc in LNCaP cells; assay: Protein expression by immunoblot, LNCaP; format: cell-based, human; details: for Myc expression level, LNCaP / PARP cleavage, LNCaP: 24 h; for Myc expression level, LNCaP / PARP cleavage, LNCaP / phosphorylated p53 (P-Ser392, P-Ser15), LNCaP: FIG. 8; for PARP cleavage, LNCaP: concentration dependent; for phosphorylated p53 (P-Ser392, P-Ser15), LNCaP: FIG. 7C
Procedure: In FIG. 6B and FIG. 6D, LNCaP cells were treated with dihydrotestosterone (DHT) to induce hormonal dependent FAS expression. Actin or Tubulin (Tub) serve as loading controls. One representative experiment out of three is presented.
Actin or Tubulin (Tub) serve as loading controls. One representative experiment out of three is presented.
Tubulin (Tub) serves as loading controls. One representative experiment out of three is presented.
Cells were treated by either DMSO (0.5%) or increasing doses of the selected molecules from 1 μM to 10 μM over 6 to 24 hours as indicated. Cell lysates were analyzed by immunoblotting following standard procedure using primary antibodies from Cell Signaling: anti-total P53 (#9282), anti-phosphoP53 Kit (#9919), anti-cyclinD1 (#2926), anti-FAS (#3189), anti EGFR (#4267), anti-Phospho (tyr1068) EGFR (#2234), anti Met (#4560), anti-Akt (#9272), anti Phospho(Ser473)-Akt (#9271) or anti-Myc (Santa Cruz Technology #Sc-40). Tubulin was detected using anti α-tubulin primary antibody (in-house: the polyclonal Glu-tubulin antibody (L4) is available commercially from Abcys (Paris, France)). HRP-coupled anti-rabbit (#A6154) and anti-mouse (#A4416) secondary antibodies were purchased from Sigma. HRP activity was detected through HRP chemoluminescence detection reagent (Millipore, #WBLUF0100). Apoptotic cell death induction was observed through the observation of PARP cleavage using anti-PARP primary antibodies anti-PARP (46D11) (#9532). Positive control was Epotoside at 50 μM or 100 μM, a known drug inducing cancerous cell death by apoptosis.

[4] = dose and time dependent, 6 h or 24 h, FIG. 6

For `CCCCS(=O)(=O)Cc1nc2c(nc1CS(=O)(=O)CCCC)C(=O)c1ccccc1C2=O` [PCR6236], the “cell death in spheroids (PI area over Hoechst area)” value (LNCaP cells spheroids) was “significant induction of a tumorous cells death”, the “cofactors (CYP)-mediated metabolism, mouse” value [1] was “high” and the “metabolism in the absence of cofactors, mouse” value [1] was “No metabolism was observed”. For the same compound, the “cell growth inhibition and cell death induction, H1975” value [2] was “inhibit cell growth and induce cell death in a dose dependent manner”, the EC50 (HCT116 cells) was 1300 nM and the “Myc expression level, LNCaP” value [3] was “decrease”. The “PARP cleavage, LNCaP” value [3] was “induced the cleavage of PARP”, the “phosphorylated p53 (P-Ser392, P-Ser15), LNCaP” value [3] was “accumulated” and the “expression level of CyclinD1, LNCaP” value [3, 4] was “strongly decreased”. The “expression level of FAS, LNCaP” value [3, 4] was “strongly decreased” and the “p53 expression, LNCaP” value ([3]; dose dependent, FIG. 7A) was “restored high levels of p53 expression”.

For `CCCCS(=O)(=O)Cc1nc2c(o1)C(=O)c1ccccc1C2=O` [PCR9301], the “cell death in spheroids (PI area over Hoechst area)” value (LNCaP cells spheroids) was “to an ever higher extend”, the “cofactors (CYP)-mediated metabolism, mouse” value [1] was “not or poorly metabolized” and the “metabolism in the absence of cofactors, mouse” value [1] was “No metabolism was observed”. The “cell growth inhibition and cell death induction, H1975” value [2] was “inhibit cell growth and induce cell death in a dose dependent manner”, the EC50 (HCT116 cells) was 1700 nM and the “Myc expression level, LNCaP” value [3] was “cMyc degradation”. For the same compound, the “PARP cleavage, LNCaP” value [3] was “induced PARP cleavage” and the “phosphorylated p53 (P-Ser392, P-Ser15), LNCaP” value [3] was “phosphorylation of p53 on Ser15”.
